According to PubChem BioAssay (NCI):
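In this assay, cells in 96-well plates receive the compound at five concentrations for 48 hours. Endpoints are linearly interpolated between the surrounding concentrations. At the GI50, growth is halved. The concentration for full growth arrest is given as TGI.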

Tests used:
Experiment in all cases: growth of human tumour cells (NCI), 48 h
RPMI-8226 leukemia = system: RPMI-8226 leukemia
NCI-H460 lung = system: NCI-H460 lung
HOP-92 NSCLC = system: HOP-92 NSCLC
SN12C renal = system: SN12C renal
CCRF-CEM leukemia = system: CCRF-CEM leukemia
HOP-62 NSCLC = system: HOP-62 NSCLC
RXF 393 renal = system: RXF 393 renal
TK-10 renal = system: TK-10 renal
NCI/ADR-RES ovarian = system: NCI/ADR-RES ovarian
SW-620 colon = system: SW-620 colon
HL-60(TB) leukemia = system: HL-60(TB) leukemia
SNB-19 CNS = system: SNB-19 CNS
OVCAR-4 ovarian = system: OVCAR-4 ovarian
NCI-H226 lung = system: NCI-H226 lung
M14 melanoma = system: M14 melanoma
SF-268 CNS = system: SF-268 CNS
SF-539 CNS = system: SF-539 CNS
HS 578T breast = system: HS 578T breast
ACHN renal = system: ACHN renal
OVCAR-3 ovarian = system: OVCAR-3 ovarian
SF-295 CNS = system: SF-295 CNS
U251 CNS = system: U251 CNS
HCT-116 colon = system: HCT-116 colon
HCC-2998 colon = system: HCC-2998 colon
COLO 205 colon = system: COLO 205 colon
UO-31 renal = system: UO-31 renal
DU-145 prostate = system: DU-145 prostate
UACC-62 melanoma = system: UACC-62 melanoma
A498 renal = system: A498 renal
MCF7 breast = system: MCF7 breast
BT-549 breast = system: BT-549 breast
SNB-75 CNS = system: SNB-75 CNS
SK-MEL-5 melanoma = system: SK-MEL-5 melanoma
T-47D breast = system: T-47D breast
MDA-MB-435 = system: MDA-MB-435
LOX IMVI melanoma = system: LOX IMVI melanoma
MOLT-4 leukemia = system: MOLT-4 leukemia
MALME-3M melanoma = system: MALME-3M melanoma
786-0 renal = system: 786-0 renal
K-562 leukemia = system: K-562 leukemia
HCT-15 colon = system: HCT-15 colon
PC-3 prostate = system: PC-3 prostate
UACC-257 melanoma = system: UACC-257 melanoma
OVCAR-8 ovarian = system: OVCAR-8 ovarian
EKVX NSCLC = system: EKVX NSCLC
SR leukemia = system: SR leukemia
MDA-MB-231 breast = system: MDA-MB-231 breast
SK-OV-3 ovarian = system: SK-OV-3 ovarian
KM12 colon = system: KM12 colon
SK-MEL-2 melanoma = system: SK-MEL-2 melanoma
IGROV1 ovarian = system: IGROV1 ovarian
OVCAR-5 ovarian = system: OVCAR-5 ovarian
NCI-H23 lung = system: NCI-H23 lung
NCI-H522 lung = system: NCI-H522 lung
CAKI-1 renal = system: CAKI-1 renal
SK-MEL-28 melanoma = system: SK-MEL-28 melanoma
MDA-MB-468 breast = system: MDA-MB-468 breast
A549 NSCLC = system: A549 NSCLC

Molecule `O=C(N/N=C/c1ccc(Cl)o1)c1[nH]c2ccc(Br)cc2c1-c1ccccc1` has a GI50 (RPMI-8226 leukemia) of 407 nM, a TGI (RPMI-8226 leukemia) greater than 40500 nM and a GI50 (NCI-H460 lung) of 328 nM. For the same molecule, the TGI (NCI-H460 lung) was 10600 nM, the GI50 (HOP-92 NSCLC) was 4200 nM and the TGI (HOP-92 NSCLC) was 43200 nM. For the same molecule, the GI50 (SN12C renal) was 377 nM, the TGI (SN12C renal) was 14200 nM and the GI50 (CCRF-CEM leukemia) was 351 nM. It also gave a TGI (CCRF-CEM leukemia) of 20200 nM, a GI50 (HOP-62 NSCLC) of 472 nM and a TGI (HOP-62 NSCLC) of 27400 nM. The GI50 (RXF 393 renal) was 397 nM, the TGI (RXF 393 renal) was 26100 nM and the GI50 (TK-10 renal) was 8980 nM. It also gave a TGI (TK-10 renal) of 37200 nM, a GI50 (NCI/ADR-RES ovarian) of 168 nM and a TGI (NCI/ADR-RES ovarian) of 514 nM. For the same molecule, the GI50 (SW-620 colon) was 378 nM, the TGI (SW-620 colon) was 27200 nM and the GI50 (HL-60(TB) leukemia) was 235 nM. It also gave a TGI (HL-60(TB) leukemia) of 713 nM, a GI50 (SNB-19 CNS) of 442 nM and a TGI (SNB-19 CNS) greater than 100000 nM. For the same molecule, the GI50 (OVCAR-4 ovarian) was 3810 nM, the TGI (OVCAR-4 ovarian) was 40200 nM and the GI50 (NCI-H226 lung) was 619 nM. The TGI (NCI-H226 lung) was 29600 nM, the GI50 (M14 melanoma) was 278 nM and the TGI (M14 melanoma) was 23100 nM. The GI50 (SF-268 CNS) was 575 nM, the TGI (SF-268 CNS) was greater than 48100 nM and the GI50 (SF-539 CNS) was 212 nM. For the same molecule, the TGI (SF-539 CNS) was 625 nM, the GI50 (HS 578T breast) was 264 nM and the TGI (HS 578T breast) was 16600 nM. It also gave a GI50 (ACHN renal) of 523 nM, a TGI (ACHN renal) of 21000 nM and a GI50 (OVCAR-3 ovarian) of 367 nM. The TGI (OVCAR-3 ovarian) was 14700 nM, the GI50 (SF-295 CNS) was 331 nM and the TGI (SF-295 CNS) was greater than 49700 nM. The GI50 (U251 CNS) was 340 nM, the TGI (U251 CNS) was 28100 nM and the GI50 (HCT-116 colon) was 128 nM. For the same molecule, the TGI (HCT-116 colon) was 3520 nM, the GI50 (HCC-2998 colon) was 380 nM and the TGI (HCC-2998 colon) was 35100 nM. For the same molecule, the GI50 (COLO 205 colon) was 245 nM, the TGI (COLO 205 colon) was 549 nM and the GI50 (UO-31 renal) was 627 nM. For the same molecule, the TGI (UO-31 renal) was 25900 nM, the GI50 (DU-145 prostate) was 382 nM and the TGI (DU-145 prostate) was 13300 nM. For the same molecule, the GI50 (UACC-62 melanoma) was 346 nM, the TGI (UACC-62 melanoma) was greater than 85900 nM and the GI50 (A498 renal) was 20100 nM. The TGI (A498 renal) was 48900 nM, the GI50 (MCF7 breast) was 292 nM and the TGI (MCF7 breast) was greater than 100000 nM. For the same molecule, the GI50 (BT-549 breast) was 295 nM, the TGI (BT-549 breast) was 1750 nM and the GI50 (SNB-75 CNS) was 309 nM. For the same molecule, the TGI (SNB-75 CNS) was 18300 nM, the GI50 (SK-MEL-5 melanoma) was 247 nM and the TGI (SK-MEL-5 melanoma) was 889 nM. The GI50 (T-47D breast) was 4530 nM, the TGI (T-47D breast) was greater than 100000 nM and the GI50 (MDA-MB-435) was 170 nM. For the same molecule, the TGI (MDA-MB-435) was 542 nM, the GI50 (LOX IMVI melanoma) was 276 nM and the TGI (LOX IMVI melanoma) was 14900 nM. The GI50 (MOLT-4 leukemia) was 405 nM, the TGI (MOLT-4 leukemia) was greater than 51600 nM and the GI50 (MALME-3M melanoma) was 462 nM. For the same molecule, the TGI (MALME-3M melanoma) was 49900 nM, the GI50 (786-0 renal) was 443 nM and the TGI (786-0 renal) was 8540 nM. For the same molecule, the GI50 (K-562 leukemia) was 251 nM, the TGI (K-562 leukemia) was greater than 100000 nM and the GI50 (HCT-15 colon) was 343 nM. It also gave a TGI (HCT-15 colon) of 33600 nM, a GI50 (PC-3 prostate) of 402 nM and a TGI (PC-3 prostate) greater than 100000 nM. For the same molecule, the GI50 (UACC-257 melanoma) was 3400 nM, the TGI (UACC-257 melanoma) was greater than 100000 nM and the GI50 (OVCAR-8 ovarian) was 298 nM. The TGI (OVCAR-8 ovarian) was 3180 nM, the GI50 (EKVX NSCLC) was 585 nM and the TGI (EKVX NSCLC) was greater than 100000 nM. The GI50 (SR leukemia) was 458 nM, the TGI (SR leukemia) was greater than 100000 nM and the GI50 (MDA-MB-231 breast) was 316 nM. It also gave a TGI (MDA-MB-231 breast) of 12100 nM, a GI50 (SK-OV-3 ovarian) of 567 nM and a TGI (SK-OV-3 ovarian) greater than 100000 nM. It also gave a GI50 (KM12 colon) of 393 nM, a TGI (KM12 colon) greater than 100000 nM and a GI50 (SK-MEL-2 melanoma) of 423 nM. The TGI (SK-MEL-2 melanoma) was greater than 100000 nM, the GI50 (IGROV1 ovarian) was 401 nM and the TGI (IGROV1 ovarian) was greater than 94900 nM. The GI50 (OVCAR-5 ovarian) was 388 nM, the TGI (OVCAR-5 ovarian) was 22100 nM and the GI50 (NCI-H23 lung) was 417 nM. It also gave a TGI (NCI-H23 lung) of 27300 nM, a GI50 (NCI-H522 lung) of 137 nM and a TGI (NCI-H522 lung) of 463 nM. It also gave a GI50 (CAKI-1 renal) of 389 nM, a TGI (CAKI-1 renal) of 17900 nM and a GI50 (SK-MEL-28 melanoma) of 993 nM. The TGI (SK-MEL-28 melanoma) was greater than 61200 nM, the GI50 (MDA-MB-468 breast) was 276 nM and the TGI (MDA-MB-468 breast) was 6370 nM. It also gave a GI50 (A549 NSCLC) of 383 nM and a TGI (A549 NSCLC) of 32400 nM.
